Bridge positions count the residues as written; N and C are the ends. Peptide text beside a SMILES is read from it.
Experiments:
IGFBP-1 = assay: Peptide inhibition of phage IGF-1 binding to IGFBP-1; parameters: species or system human; conditions: synthetic peptide preincubated 45 minutes with IGF-1 displaying phage; plates coated with IGF binding protein; read-out: BP1 Comp
Method: (§1) Peptide Inhibition of Phage IGF-1 Binding to IGF Binding Proteins
(§2) For inhibition of IGFBP-1 and IGFBP3, E. coli cells (XL1-Blue, Stratagene) freshly transformed with the phage vector pIGF-g3 displaying human IGF-1 as described in Dubaquie and Lowman, supra, was grown overnight in 5 ml of 2YT medium (Sambrook et al., Molecular Cloning. A Laboratory Handbook (Cold Spring Harbor Laboratory Press, Cold Spring Harbor, N.Y., 1989)). The IGF-1 displaying phage was titered against IGF bp1 and bp3 for a 500-1000× dilution for preincubation with serial dilutions the synthesized peptides and binding protein standards for 45 minutes. Immunosorbant plates were coated with IGF binding proteins and blocked with 0.5% TWEEN®-20 detergent and PBS and washed as above. The samples were added to the plates for 20 minutes, washed and detected as above. The experimental IC50 values are in Table 5.

IGFBP3 = assay: Peptide inhibition of phage IGF-1 binding to IGFBP-3; parameters: species or system human; conditions: synthetic peptide preincubated 45 minutes with IGF-1 displaying phage; plates coated with IGF binding protein; read-out: BP3 Comp
Method: as §1, §2

[1] = system: human insulin receptor (hIR); assay: Cell-based insulin KIRA assay (kinase receptor activation); conditions: Chinese hamster ovary cells transfected with hIR; peptides incubated with 25 nm IGF-1 for 1 hr; 15 min stimulation
Method: Cell-Based Insulin KIRA Assay of IGF-1 Binding Peptide Activity
A kinase receptor activation assay (KIRA) (Sadick et al., J. Pharm. Biomed. Anal., 19, 883-891 (1999)) for measuring phosphorylation of human insulin receptor (hIR) was developed using Chinese hamster ovary cells transfected with the hIR. (TRY-1R 5.3) Cells were grown overnight in 96-well plates with medium (PS/20) at 37° C. Supernatants were decanted and stimulation media (PS/20 and 0.5% BSA) containing either peptide samples (peptides incubated with 25 nm IGF-1 for 1 hr), experimental controls (IGF Bp1 incubated with IGF-1 for 1 hr), and 25 nm rhIGF-1 standards were added. After fifteen minute stimulation at 37° C., stimulation solutions were removed and cells were lysed with a buffer containing 50 mM HEPES, 150 mM NaCl, 0.5% Triton-X-100™ octylphenyl ethylene oxide condensate, 1 mM AEBSF, aprotinin and 0.05 mM leupeptin, and 2 mM sodium orthovanadate. Lysates were frozen at −70° C. for ELISA. Immunosorbant plates were coated with 2 μg/ml insulin receptor Ab-2 (clone 83-7) in PBS at pH 7.0 overnight at 4° C. The plate was blocked and washed as above. Cell lysates containing transfected hIR were incubated on the capture ELISA plates for 2 hrs. After removing unbound receptor by washing, biotinylated anti-phosphotyrosine 4G10 (Upstate Biologicals Inc.) was added to detect activated receptor. After 2 hrs, the plates were developed with streptavidin conjugated to HRP and TMB substrate as above.

[2] = system: human type 1 IGF-1 receptor; assay: Cell-based IGF-1 KIRA assay; conditions: MCF-7 cells; peptides preincubated 30 min with 2 nm IGF-1; 15-minute stimulation
Method: Cell-Based IGF-1 KIRA Assay
A KIRA for measuring the activation of the human type 1 IGF-1 receptor was performed using human MCF-7 cells (as described above). Cells were grown overnight in 96-well plates with medium (50:50 F12/DMEM, Gibco). Supernatants were decanted, and stimulation media (50:50 F12/DMEM with 25 mM HEPES and 2.0% BSA) containing either controls (2 nM IGF-1 preincubated with IGF Bp1 or Bp3) or experimental samples (Peptides preincubated for 30 min. with 2 nm IGF-1) were added. After 15-minute stimulation the cells were lysed, and added to the polyclonal anti-IGF-R (3B7 Santa Cruz Biotech) coated overnight on immunosorbant plates. The detection ELISA was performed as above.

[3] = system: IGF receptors on MCF-7 cells; assay: Displacement of 125I IGF-1 on MCF-7 cells; parameters: species or system human; conditions: peptides preincubated with 2 nm 125I IGF-1 for 40 minutes at 37° C; added to cells for 30 minutes; read-out: MCF-7 binding
Method: Displacement of IGF-1 on MCF-7 Cells
MCF7 (ATCC-HTB, Bethesda, Md.), a breast carcinoma cell line that expresses IGF receptors as well as insulin receptors (Grupe et al., J. Biol. Chem., 270, 22085-22088 (1995)) was used to detect inhibition of ^125I IGF-1 to receptors on cells by synthesized peptides. Cell were passaged weekly in media containing a 50/50 mix of high-glucose DMEM/Ham's F12, with 10% fetal bovine serum and 10 mM HEPES pH 7.2. Cells were plated and grown overnight maintained at 37° C. and 5% CO2. For IGF-1 iodination, 50 μg of IGF-1 was diluted into 200 μL of PBS and added to a tube coated with 100 μg of IODOGEN® 1,3,4,6-tetrachloro-3α-6β-diphenylglycouril) (Pierce Chemical Co.), incubated with 1 mCi of ^125I-NaI (10 μL) at room temperature for 10-15 minutes. Synthesized peptides and binding protein controls were preincubated with 2 nm ^125I IGF-1 for 40 minutes at 37° C. The samples were added to cells for 30 minutes. The cells were washed with media and lysed with 1N NaOH.

Structure (SMILES)	IC50 (IGFBP-1)	IC50 (IGFBP3)	IC50 [1]	IC50 [2]	IC50 [3]
CSCC[C@H](NC(=O)[C@@H]1CSSC[C@H](NC(=O)[C@H](CC(N)=O)NC(=O)[C@@H](N)CCCNC(=N)N)C(=O)N[C@@H](Cc2ccccc2)C(=O)N[C@@H](CCC(=O)O)C(=O)N[C@@H](CO)C(=O)N[C@@H](C(C)C)C(=O)N[C@@H](C)C(=O)N[C@@H](C)C(=O)N[C@@H](CC(C)C)C(=O)N[C@@H](CCCNC(=N)N)C(=O)N[C@@H](CCCNC(=N)N)C(=O)N1)C(=O)N[C@@H](Cc1ccc(O)cc1)C(=O)NCC(=O)O [Peptide F1-1, RNCFESVAALRRCMYG] (H-RNCFESVAALRRCMYG-OH; disulfide 3-13)	1.4 µM	2.93 µM	5.48 µM	84.9 µM	5.12 µM
CSCC[C@H](NC(=O)[C@@H]1CSSC[C@H](NC(=O)[C@H](CC(=O)O)NC(=O)[C@@H](N)CCSC)C(=O)N[C@@H](CC(C)C)C(=O)N[C@@H](C)C(=O)N[C@@H](CO)C(=O)N[C@@H](C(C)C)C(=O)N[C@@H](CCC(=O)O)C(=O)N[C@@H](C)C(=O)N[C@@H](CC(C)C)C(=O)N[C@@H](CCCCN)C(=O)N[C@@H](Cc2c[nH]c3ccccc23)C(=O)N1)C(=O)N[C@@H](Cc1ccc(O)cc1)C(=O)NCC(=O)O [Peptide F1-2, MDCLASVEALKWCMYG] (H-MDCLASVEALKWCMYG-OH; disulfide 3-13 (inferred); N-terminus and C-terminus assumed)	15.5 µM	9.2 µM	32.6 µM	20 µM	15.3 µM
CSCC[C@H](NC(=O)[C@@H]1CSSC[C@H](NC(=O)[C@H](CCC(=O)O)NC(=O)[C@@H](N)Cc2ccccc2)C(=O)N[C@@H](CC(C)C)C(=O)N[C@@H]([C@@H](C)O)C(=O)N[C@@H](CO)C(=O)N[C@@H](C(C)C)C(=O)N[C@@H](CCC(=O)O)C(=O)N[C@@H](C)C(=O)N[C@@H](CC(C)C)C(=O)N[C@@H](CCCNC(=N)N)C(=O)NCC(=O)N1)C(=O)N[C@@H](Cc1ccc(O)cc1)C(=O)NCC(N)=O [Peptide F1-3, FECLTSVEALRGCMYG] (H-FECLTSVEALRGCMYG-NH2; disulfide 3-13; N-terminus and C-terminus assumed)	11.7 µM	12.8 µM	66.1 µM	102 µM	45.7 µM

— US20060149033A1, “IGF antagonist peptides” (GENENTECH, INC., priority 2001, published 2006)
